Measurements published in the supplement of paper PMC10307832.

Legend:
Assay in all cases: relative viability (nuclei count vs DMSO), 5 days (fraction); higher = more cells survive
NCI-H1437 = test system: NCI-H1437
Outline: (§1)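 Cells from lung cancer lines were seeded into 1536-well plates and, one day later, dosed by pin tool. Treatments were either a single drug or a fixed dose of an anchor drug with five library-drug doses (not always all listed) in √10 steps. After 5 days, nuclei were stained in a one-step fixation (final 0.05% Triton X-100, 1% formaldehyde, 1 ug/ml Hoechst) and counted on 4× images, and relative viability is the treated-to-vehicle nuclei ratio, as the median of duplicate plates.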

NCI-H1792 = test system: NCI-H1792
Outline: as §1

NCI-H2170 = test system: NCI-H2170
Outline: as §1

NCI-H1734 = test system: NCI-H1734
Outline: as §1

BEN = test system: BEN
Outline: as §1

NCI-H661 = test system: NCI-H661
Outline: as §1

EKVX = test system: EKVX
Outline: as §1

NCI-H1993 = test system: NCI-H1993
Outline: as §1

NCI-H2087 = test system: NCI-H2087
Outline: as §1

SK-LU-1 = test system: SK-LU-1
Outline: as §1

NCI-H1355 = test system: NCI-H1355
Outline: as §1

LOU-NH91 = test system: LOU-NH91
Outline: as §1

HCC-366 = test system: HCC-366
Outline: as §1

SK-MES-1 = test system: SK-MES-1
Outline: as §1

HCC-827 = test system: HCC-827
Outline: as §1

NCI-H647 = test system: NCI-H647
Outline: as §1

HARA = test system: HARA
Outline: as §1

NCI-H2405 = test system: NCI-H2405
Outline: as §1

NCI-H2009 = test system: NCI-H2009
Outline: as §1

NCI-H1395 = test system: NCI-H1395
Outline: as §1

CC(=O)O[C@@]12CO[C@@H]1C[C@H](O)[C@@]1(C)C(=O)[C@H](O)C3=C(C)[C@@H](OC(=O)[C@H](O)[C@@H](NC(=O)OC(C)(C)C)c4ccccc4)C[C@@](O)([C@@H](OC(=O)c4ccccc4)[C@H]21)C3(C)C [Docetaxel] + CS(=O)(=O)N1CCN(Cc2cc3nc(-c4cccc5[nH]ncc45)nc(N4CCOCC4)c3s2)CC1 [Pictilisib] (partner 1 µM)
relative viability (NCI-H1437; first compound 0.0002 µM): 0.453
relative viability (NCI-H1437; first compound 0.000632 µM): 0.366
relative viability (NCI-H1437; first compound 0.002 µM): 0.132
relative viability (NCI-H1437; first compound 0.006325 µM): 0.117
relative viability (NCI-H1437; first compound 0.02 µM): 0.0671
relative viability (NCI-H1792; first compound 0.0002 µM): 0.274
relative viability (NCI-H1792; first compound 0.000632 µM): 0.273
relative viability (NCI-H1792; first compound 0.002 µM): 0.178
relative viability (NCI-H1792; first compound 0.02 µM): 0.073
relative viability (NCI-H2170; first compound 0.0002 µM): 0.342
relative viability (NCI-H2170; first compound 0.000632 µM): 0.288
relative viability (NCI-H2170; first compound 0.002 µM): 0.183
relative viability (NCI-H2170; first compound 0.006325 µM): 0.186
relative viability (NCI-H1734; first compound 0.0002 µM): 0.462
relative viability (NCI-H1734; first compound 0.000632 µM): 0.387
relative viability (NCI-H1734; first compound 0.002 µM): 0.347
relative viability (NCI-H1734; first compound 0.006325 µM): 0.335
relative viability (NCI-H1734; first compound 0.02 µM): 0.213
relative viability (BEN; first compound 0.0002 µM): 0.479
relative viability (BEN; first compound 0.000632 µM): 0.504
relative viability (BEN; first compound 0.006325 µM): 0.23
relative viability (BEN; first compound 0.02 µM): 0.169
relative viability (NCI-H661; first compound 0.0002 µM): 0.356
relative viability (NCI-H661; first compound 0.000632 µM): 0.387
relative viability (NCI-H661; first compound 0.002 µM): 0.341
relative viability (NCI-H661; first compound 0.006325 µM): 0.296
relative viability (NCI-H661; first compound 0.02 µM): 0.278
relative viability (EKVX; first compound 0.0002 µM): 0.447
relative viability (EKVX; first compound 0.000632 µM): 0.45
relative viability (EKVX; first compound 0.002 µM): 0.26
relative viability (EKVX; first compound 0.006325 µM): 0.187
relative viability (EKVX; first compound 0.02 µM): 0.119
relative viability (NCI-H1993; first compound 0.0002 µM): 0.746
relative viability (NCI-H1993; first compound 0.000632 µM): 0.706
relative viability (NCI-H1993; first compound 0.002 µM): 0.729
relative viability (NCI-H1993; first compound 0.006325 µM): 0.682
relative viability (NCI-H1993; first compound 0.02 µM): 0.545
relative viability (NCI-H2087; first compound 0.0002 µM): 0.841
relative viability (NCI-H2087; first compound 0.000632 µM): 0.631
relative viability (NCI-H2087; first compound 0.002 µM): 0.284
relative viability (NCI-H2087; first compound 0.006325 µM): 0.34
relative viability (NCI-H2087; first compound 0.02 µM): 0.193
relative viability (SK-LU-1; first compound 0.0002 µM): 0.608
relative viability (SK-LU-1; first compound 0.000632 µM): 0.305
relative viability (SK-LU-1; first compound 0.002 µM): 0.253
relative viability (SK-LU-1; first compound 0.006325 µM): 0.181
relative viability (SK-LU-1; first compound 0.02 µM): 0.171
relative viability (NCI-H1355; first compound 0.0002 µM): 0.479
relative viability (NCI-H1355; first compound 0.000632 µM): 0.426
relative viability (NCI-H1355; first compound 0.002 µM): 0.256
relative viability (NCI-H1355; first compound 0.006325 µM): 0.224
relative viability (NCI-H1355; first compound 0.02 µM): 0.179
relative viability (LOU-NH91; first compound 0.0002 µM): 0.524
relative viability (LOU-NH91; first compound 0.000632 µM): 0.491
relative viability (LOU-NH91; first compound 0.002 µM): 0.38
relative viability (LOU-NH91; first compound 0.006325 µM): 0.318
relative viability (LOU-NH91; first compound 0.02 µM): 0.339
relative viability (HCC-366; first compound 0.0002 µM): 0.0877
relative viability (HCC-366; first compound 0.002 µM): 0.0735
relative viability (HCC-366; first compound 0.006325 µM): 0.0362
relative viability (HCC-366; first compound 0.02 µM): 0.0228
relative viability (SK-MES-1; first compound 0.0002 µM): 0.303
relative viability (SK-MES-1; first compound 0.000632 µM): 0.34
relative viability (SK-MES-1; first compound 0.006325 µM): 0.206
relative viability (SK-MES-1; first compound 0.02 µM): 0.119
relative viability (HCC-827; first compound 0.0002 µM): 0.904
relative viability (HCC-827; first compound 0.000632 µM): 1.08
relative viability (HCC-827; first compound 0.002 µM): 0.787
relative viability (HCC-827; first compound 0.006325 µM): 0.466
relative viability (HCC-827; first compound 0.02 µM): 0.363
relative viability (NCI-H647; first compound 0.0002 µM): 0.293
relative viability (NCI-H647; first compound 0.000632 µM): 0.206
relative viability (NCI-H647; first compound 0.002 µM): 0.138
relative viability (NCI-H647; first compound 0.006325 µM): 0.117
relative viability (NCI-H647; first compound 0.02 µM): 0.0727
relative viability (HARA; first compound 0.0002 µM): 0.211
relative viability (HARA; first compound 0.000632 µM): 0.159
relative viability (HARA; first compound 0.002 µM): 0.126
relative viability (HARA; first compound 0.006325 µM): 0.0701
relative viability (HARA; first compound 0.02 µM): 0.0659
relative viability (NCI-H2405; first compound 0.0002 µM): 0.393
relative viability (NCI-H2405; first compound 0.000632 µM): 0.429
relative viability (NCI-H2405; first compound 0.002 µM): 0.39
relative viability (NCI-H2405; first compound 0.006325 µM): 0.272
relative viability (NCI-H2405; first compound 0.02 µM): 0.182
relative viability (NCI-H2009; first compound 0.0002 µM): 0.696
relative viability (NCI-H2009; first compound 0.000632 µM): 0.747
relative viability (NCI-H2009; first compound 0.002 µM): 0.447
relative viability (NCI-H2009; first compound 0.006325 µM): 0.203
relative viability (NCI-H2009; first compound 0.02 µM): 0.129
relative viability (NCI-H1395; first compound 0.0002 µM): 0.53
relative viability (NCI-H1395; first compound 0.000632 µM): 0.617
relative viability (NCI-H1395; first compound 0.002 µM): 0.543
relative viability (NCI-H1395; first compound 0.006325 µM): 0.382
relative viability (NCI-H1395; first compound 0.02 µM): 0.384
